Like-named read-outs stand apart in the source and are kept apart here.
Tested on: patients with chronic heart failure with reduced ejection fraction (LVEF ≤40%)
Source text: Eligibility requirements included an age of at least 18 years, New York Heart Association (NYHA) class II, III, or IV symptoms, and an ejection fraction of 40% or less. […] Patients with atrial fibrillation or atrial flutter on their baseline electrocardiogram were required to have a NT-proBNP level of at least 900 pg/mL, irrespective of history of heart failure hospitalization. Patients were required to receive standard drug and device therapy for heart failure including an angiotensin-converting enzyme (ACE) inhibitor, angiotensin receptor blocker (ARB), or sacubitril/valsartan; a beta-blocker, unless contraindicated or not tolerated, and a mineralocorticoid receptor (MR) […], if considered appropriate. Doses were required to be individually optimized, in accordance with the targets recommended in guidelines, and stable for at least 4 weeks (excepting diuretics, which could be dosed flexibly). Investigators were advised that patients with type 2 diabetes should continue to take their glucose-lowering therapies, but these could be adjusted as required. Specifically, the protocol stated that the dose of insulin, sulfonylurea treatment, or both, could be reduced to minimize the risk of hypoglycemia, for example in patients with a baseline hemoglobin A1C (HbA1c) level below 7%.
All the patients provided written informed consent and entered a 14-day enrollment period during which the trial inclusion and exclusion criteria were checked and baseline information gathered, including findings from clinical examination and laboratory measurements. […] Investigators used an interactive voice or web response system to obtain treatment assignment. Randomization was stratified based on a diagnosis of type 2 diabetes, defined as either an established diagnosis or a HbA1c level of 6.5% or greater (≥48 mmol/mol) confirmed in a central laboratory at screening. Patients were evaluated at 14 days and 60 days after randomization, with a focus on assessment of heart failure and volume status, adverse events, and checking renal function and potassium. Further study visits took place at 4 months and at 4-month intervals thereafter. The protocol required that study drug be permanently discontinued if pregnancy or diabetic ketoacidosis occurred.
The primary outcome was a composite of a first episode of worsening heart failure or death from cardiovascular causes. An episode of worsening heart failure was either an unplanned hospitalization for heart failure or an urgent heart failure visit requiring intravenous therapy.^14 The first of the secondary outcomes was the composite of heart failure hospitalization or cardiovascular death.
Outcomes were adjudicated by a clinical-end-points committee, blinded to treatment assignment, according to prespecified criteria.
Using a two-sided alpha of 5%, we calculated that 844 primary endpoints would provide a statistical power of 90% for the test of the hypothesis. With an expected annual event rate of 11% in the placebo treatment group, approximately 4500 patients were estimated to provide the required number of primary events, based on an anticipated recruitment period of 18 months and an average follow-up period of approximately 24 months. A closed testing procedure was used, including a prespecified hierarchical testing of the primary and secondary endpoints in the order specified above. Type I error was controlled at a two-sided 0.0499 alpha level for multiplicity across primary and secondary endpoints and taking account of one interim efficacy analysis.
Data from all randomly assigned patients were included in the analyses of the primary and secondary outcomes, according to the intention-to-treat principle. Baseline characteristics were summarized as means and standard deviations, medians and inter-quartile ranges, or percentages.

CCOc1ccc(Cc2cc([C@@H]3O[C@H](CO)[C@@H](O)[C@H](O)[C@H]3O)ccc2Cl)cc1 [Dapagliflozin, dapagliflozin]
Cardiovascular death or hospitalization for heart failure, No. (%) (No T2DM (N = 1298)): 169 (13.0) No. (%) | Cardiovascular death or hospitalization for heart failure, Subjects with Event/100 Patient-Yr (No T2DM (N = 1298)): 9.1 Event/100 Patient-Yr | Cardiovascular death, No. (%) (No T2DM (N = 1298)): 106 (8.2) No. (%) | Cardiovascular death, Subjects with Event/100 Patient-Yr (No T2DM (N = 1298)): 5.5 Event/100 Patient-Yr | Death from any cause, No. (%) (No T2DM (N = 1298)): 133 (10.3) No. (%) | Death from any cause, Subjects with Event/100 Patient-Yr (No T2DM (N = 1298)): 6.9 Event/100 Patient-Yr | Hospitalization for heart failure or an urgent heart failure visit, No. (%) (No T2DM (N = 1298)): 95 (7.3) No. (%) | Hospitalization for heart failure or an urgent heart failure visit, Subjects with Event/100 Patient-Yr (No T2DM (N = 1298)): 5.1 Event/100 Patient-Yr | Hospitalization for heart failure, No. (%) (No T2DM (N = 1298)): 93 (7.2) No. (%) | Hospitalization for heart failure, Subjects with Event/100 Patient-Yr (No T2DM (N = 1298)): 5.0 Event/100 Patient-Yr | Primary composite outcome, No. (%) (No T2DM (N = 1298)): 171 (13.2) No. (%) | Primary composite outcome, Subjects with Event/100 Patient-Yr (No T2DM (N = 1298)): 9.2 Event/100 Patient-Yr | Total number of (first and recurrent) heart failure hospitalizations and cardiovascular death (No T2DM (N = 1298)): 239 | Urgent heart failure visit, No. (%) (No T2DM (N = 1298)): 3 (0.2) No. (%) | Urgent heart failure visit, Subjects with Event/100 Patient-Yr (No T2DM (N = 1298)): 0.2 Event/100 Patient-Yr | Worsening renal function (composite), No. (%) (No T2DM (N = 1298)): 10 (0.8) No. (%) | Worsening renal function (composite), Subjects with Event/100 Patient-Yr (No T2DM (N = 1298)): 0.5 Event/100 Patient-Yr | Cardiovascular death or hospitalization for heart failure, No. (%) (T2DM (N = 1075)): 213 (19.8) No. (%) | Cardiovascular death or hospitalization for heart failure, Subjects with Event/100 Patient-Yr (T2DM (N = 1075)): 14.4 Event/100 Patient-Yr | Cardiovascular death, No. (%) (T2DM (N = 1075)): 121 (11.3) No. (%) | Cardiovascular death, Subjects with Event/100 Patient-Yr (T2DM (N = 1075)): 7.7 Event/100 Patient-Yr | Death from any cause, No. (%) (T2DM (N = 1075)): 143 (13.3) No. (%) | Death from any cause, Subjects with Event/100 Patient-Yr (T2DM (N = 1075)): 9.1 Event/100 Patient-Yr | Hospitalization for heart failure or an urgent heart failure visit, No. (%) (T2DM (N = 1075)): 142 (13.2) No. (%) | Hospitalization for heart failure or an urgent heart failure visit, Subjects with Event/100 Patient-Yr (T2DM (N = 1075)): 9.6 Event/100 Patient-Yr | Hospitalization for heart failure, No. (%) (T2DM (N = 1075)): 138 (12.8) No. (%) | Hospitalization for heart failure, Subjects with Event/100 Patient-Yr (T2DM (N = 1075)): 9.3 Event/100 Patient-Yr | Primary composite outcome, No. (%) (T2DM (N = 1075)): 215 (20.0) No. (%) | Primary composite outcome, Subjects with Event/100 Patient-Yr (T2DM (N = 1075)): 14.6 Event/100 Patient-Yr | Total number of (first and recurrent) heart failure hospitalizations and cardiovascular death (T2DM (N = 1075)): 328 | Urgent heart failure visit, No. (%) (T2DM (N = 1075)): 7 (0.7) No. (%) | Urgent heart failure visit, Subjects with Event/100 Patient-Yr (T2DM (N = 1075)): 0.4 Event/100 Patient-Yr | Worsening renal function (composite), No. (%) (T2DM (N = 1075)): 18 (1.7) No. (%) | Worsening renal function (composite), Subjects with Event/100 Patient-Yr (T2DM (N = 1075)): 1.2 Event/100 Patient-Yr | Cardiovascular death or hospitalization for heart failure, Events/100 Patient-Yr (all patients (N = 2373)): 11.4 Events/100 Patient-Yr | Cardiovascular death or hospitalization for heart failure, No. (%) (all patients (N = 2373)): 382 (16.1) No. (%) | Cardiovascular death, Events/100 Patient-Yr (all patients (N = 2373)): 6.5 Events/100 Patient-Yr | Cardiovascular death, No. (%) (all patients (N = 2373)): 227 (9.6) No. (%) | Death from any cause, Events/100 Patient-Yr (all patients (N = 2373)): 7.9 Events/100 Patient-Yr | Death from any cause, No. (%) (all patients (N = 2373)): 276 (11.6) No. (%) | Hospitalization for heart failure or an urgent heart failure visit, Events/100 Patient-Yr (all patients (N = 2373)): 7.1 Events/100 Patient-Yr | Hospitalization for heart failure or an urgent heart failure visit, No. (%) (all patients (N = 2373)): 237 (10.0) No. (%) | Hospitalization for heart failure, Events/100 Patient-Yr (all patients (N = 2373)): 6.9 Events/100 Patient-Yr | Hospitalization for heart failure, No. (%) (all patients (N = 2373)): 231 (9.7) No. (%) | Primary composite outcome, Events/100 Patient-Yr (all patients (N = 2373)): 11.6 Events/100 Patient-Yr | Total number of (first and recurrent) heart failure hospitalizations and cardiovascular death (all patients (N = 2373)): 567 | Urgent heart failure visit, Events/100 Patient-Yr (all patients (N = 2373)): 0.3 Events/100 Patient-Yr | Urgent heart failure visit, No. (%) (all patients (N = 2373)): 10 (0.4) No. (%) | Worsening renal function (composite), Events/100 Patient-Yr (all patients (N = 2373)): 0.8 Events/100 Patient-Yr
